Each structure is given as a SMILES string. pIC50: −log10 of the molar value. A value given as a limit tells only on which side of the number the result lay.

The assay deals with human full-length MKNK1 (Homo sapiens (Human), UniProt Q9BUB5, T344D). Kind of assay: MKNK1 kinase high ATP assay (TR-FRET). The assay is classed as biochemical. The note with it: 2 mM ATP, 15 min preincubation with enzyme, GST-MKNK1 (T344D). The procedure, abridged: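 GST-tagged full-length human MKNK1 (1-424, T344D, baculovirus-expressed) preincubated 15 min at 22 °C with compound, then reacted 30 min at 22 °C with 2 mM ATP and 0.06 μM biotinylated peptide (final) in HEPES pH 7.5. Phospho-substrate by TR-FRET (665/622 nm ratio), normalised to no-inhibitor and no-enzyme controls.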
Chain of human full-length MKNK1 (Q9BUB5 other isoform, or with tags, fused parts or gaps T344D): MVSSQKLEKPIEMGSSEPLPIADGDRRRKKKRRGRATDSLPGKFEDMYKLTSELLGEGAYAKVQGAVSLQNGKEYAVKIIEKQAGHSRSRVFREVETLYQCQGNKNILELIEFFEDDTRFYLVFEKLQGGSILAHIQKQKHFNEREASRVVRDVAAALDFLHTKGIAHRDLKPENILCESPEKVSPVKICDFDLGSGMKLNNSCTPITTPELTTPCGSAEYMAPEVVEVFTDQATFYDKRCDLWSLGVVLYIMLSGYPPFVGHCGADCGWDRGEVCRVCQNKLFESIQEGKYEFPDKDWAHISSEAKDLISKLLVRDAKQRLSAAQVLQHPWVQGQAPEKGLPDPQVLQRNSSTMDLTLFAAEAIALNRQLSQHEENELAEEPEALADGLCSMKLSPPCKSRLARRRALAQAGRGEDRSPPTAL

Take `Cc1cc(Nc2ncnc3c(C)cccc23)c(=O)n2c1C(=O)NC21CCCCC1` [Example 120, 8′-methyl-6′-[(8-methylquinazolin-4-yl)amino]-2′H-spiro[cyclohexane-1,3′-imidazo[1,5-a]pyridine]-1′,5′-dione]: the pIC50 was < 4.70.

On to `Cc1cc(Nc2ncnc3ccc(Cl)cc23)c(=O)n2c1C(=O)NC21CCS(=O)(=O)CC1` [Example 199, 6-[(6-chloroquinazolin-4-yl)amino]-8-methyl-2′,3′,5′,6′-tetrahydro-2H-spiro[imidazo[1,5-a]pyridine-3,4′-thiopyran]-1,5-dione 1′,1′-dioxide], for which the pIC50 was 7.25.

In the case of `Cc1cc(Nc2ncnc3c2CNC3)c(=O)n2c1C(=O)NC21CCCC1` [Example 126, 6′-(6,7-Dihydro-5H-pyrrolo[3,4-d]pyrimidin-4-ylamino)-8′-methyl-2′H-spiro[cyclopentane-1,3′-imidazo[1,5-a]pyridine]-1′,5′-dione], the negative logarithm of the IC50 (pIC50) is 7.69.

Regarding `Cc1cc(Nc2ncnc3cccc(Cl)c23)c(=O)n2c1C(=O)NC21CCCCC1` [Example 109, 6′-[(5-Chloroquinazolin-4-yl)amino]-8′-methyl-2′H-spiro[cyclohexane-1,3′-imidazo[1,5-a]pyridine]-1′,5′-dione], the pIC50 was 7.99.

`Cc1cc(Nc2ncnc3sc(C(=O)N4CCN(C)CC4)c(C)c23)c(=O)n2c1C(=O)NC21CCCCC1` [Example 19, 8′-methyl-6′-({5-methyl-6-[(4-methylpiperazin-1-yl)carbonyl]thieno[2,3-d]pyrimidin-4-yl}amino)-2′H-spiro[cyclohexane-1,3′-imidazo[1,5-a]pyridine]-1′,5′-dione] gave a pIC50 of 7.47.

`COCCN(C)C(=O)c1cc2c(Nc3cc(C)c4n(c3=O)C3(CCCCC3)NC4=O)ncnc2s1` [Example 11, N-(2-Methoxyethy)-N-methyl-4-[(8′-methyl-1′,5′-dioxo-1′,5′-dihydro-2′H-spiro[cyclohexane-1,3′-imidazo[1,5-a]pyridin]-6′-yl)amino]thieno[2,3-d]pyrimidine-6-carboxamide] gave a negative logarithm of the IC50 (pIC50) of 7.43. The pIC50 values of the last two molecules are within 0.2 log units of each other.

`Cc1ccc2c(Nc3cc(C)c4n(c3=O)C3(CCCCC3)NC4=O)ncnc2c1` [Example 121, 8′-Methyl-6′-[(7-methylquinazolin-4-yl)amino]-2′H-spiro[cyclohexane-1,3′-imidazo[1,5-a]pyridine]-1′,5′-dione] had a negative-log IC50 (pIC50) of 8.15. Compared with the last molecule, the pIC50 is 0.72 log units higher.

`Cc1cc(Nc2ncnc3ccc(F)cc23)c(=O)n2c1C(=O)NC21CCCC1` [Example 185, 6′-[(6-fluoroquinazolin-4-yl)amino]-8′-methyl-2′H-spiro[cyclopentane-1,3′-imidazo[1,5-a]pyridine]-1′,5′-dione] had a pIC50 of 8.10.

Turning to `Cc1cc(Nc2ncnc3ccc(Cl)cc23)c(=O)n2c1C(=O)NC21CCSCC1` [Example 197, 6-[(6-chloroquinazolin-4-yl)amino]-8-methyl-2′,3′,5′,6′-tetrahydro-2H-spiro[imidazo[1,5-a]pyridine-3,4′-thiopyran]-1,5-dione], the pIC50 was 7.83.

In the case of `Cc1cc(Nc2ncnc3sc(C(=O)N4CC(C#N)C4)cc23)c(=O)n2c1C(=O)NC21CCCC1` [Example 61, 1-({4-[(8′-Methyl-1′,5′-dioxo-1′,5′-dihydro-2′H-spiro[cyclopentane-1,3′-imidazo[1,5-a]pyridin]-6′-yl)amino]thieno[2,3-d]pyrimidin-6-yl}carbonyl)azetidine-3-carbonitrile], the negative logarithm of the IC50 (pIC50) was 8.23. Compared with the last molecule, the pIC50 is 0.40 log units higher.

On to `Cc1cc(Nc2ncnc3cc(Cl)ccc23)c(=O)n2c1C(=O)NC21CCCC1` [Example 186, 6′-[(7-chloroquinazolin-4-yl)amino]-8′-methyl-2′H-spiro[cyclopentane-1,3′-imidazo[1,5-a]pyridine]-1′,5′-dione], for which the pIC50 is 8.26.

`Cc1cc(Nc2ncnc3sc(C(=O)N4CC[C@@H](N(C)C)C4)cc23)c(=O)n2c1C(=O)NC21CCC1` [Example 156, 6′-[(6-{[(3R)-3-(Dimethylamino)pyrrolidin-1-yl]carbonyl}thieno[2,3-d]pyrimidin-4-yl)amino]-8′-methyl-2′H-spiro[cyclobutane-1,3′-imidazo[1,5-a]pyridine]-1′,5′-dione] gave a pIC50 of 8.37.

Take `Cc1cc(Nc2ncnc3sc(C(=O)N4C[C@H]5C[C@@H]4CO5)cc23)c(=O)n2c1C(=O)NC21CCCC1` [Example 96, 8′-Methyl-6′-({6-[(1R,4R)-2-oxa-5-azabicyclo[2.2.1]hept-5-ylcarbonyl]thieno[2,3-d]pyrimidin-4-yl}amino)-2′H-spiro[cyclopentane-1,3′-imidazo[1,5-a]pyridine]-1′,5′-dione]: the pIC50 is 8.41.

For `Cc1cc(Nc2ncnc3ccccc23)c(=O)n2c1C(=O)NC21CCC1` [Example 172, 8′-methyl-6′-[(quinazolin-4-yl)amino]-2′H-spiro[cyclobutane-1,3′-imidazo[1,5-a]pyridine]-1′,5′-dione], the negative-log IC50 (pIC50) is 7.92.

`Cc1cc(Nc2ncnc3sc(C(=O)N4CCC(N(C)C)CC4)cc23)c(=O)n2c1C(=O)NC21CCCC1` [Example 64, 6′-[(6-{[4-(Dimethylamino)piperidin-1-yl]carbonyl}thieno[2,3-d]pyrimidin-4-yl)amino]-8′-methyl-2′H-spiro[cyclopentane-1,3′-imidazo[1,5-a]pyridine]-1′,5′-dione] gave a negative logarithm of the IC50 (pIC50) of 8.26.

`Cc1cc(Nc2ncnc3ccc(F)cc23)c(=O)n2c1C(=O)NC21CCCCC1` [Example 113, 6′-[(6-Fluoroquinazolin-4-yl)amino]-8′-methyl-2′H-spiro[cyclohexane-1,3′-imidazo[1,5-a]pyridine]-1′,5′-dione] showed a pIC50 of 7.81.

Take `Cc1cc(Nc2ncnc3sc(C(=O)N4CC(C#N)C4)cc23)c(=O)n2c1C(=O)NC21CCCCC1` [Example 26, 1-({4-[(8′-Methyl-1′,5′-dioxo-1′,5′-dihydro-2′H-spiro[cyclohexane-1,3′-imidazo[1,5-a]pyridin]-6′-yl)amino]thieno[2,3-d]pyrimidin-6-yl}carbonyl)azetidine-3-carbonitrile]: the pIC50 is 8.30.

The molecule `Cc1cc(Nc2ncnc3sc(C(=O)N4CCC(N(C)C)CC4)cc23)c(=O)n2c1C(=O)NC2(C)C` [Example 143, 6-[(6-{[4-(Dimethylamino)piperidin-1-yl]carbonyl}thieno[2,3-d]pyrimidin-4-yl)amino]-3,3,8-trimethyl-2,3-dihydroimidazo[1,5-a]pyridine-1,5-dione] showed a pIC50 of 7.39.

Molecule `Cc1ccc2ncnc(Nc3cc(C)c4n(c3=O)C3(CCCCC3)NC4=O)c2c1` [Example 122, 8′-Methyl-6′-[(6-methylquinazolin-4-yl)amino]-2′H-spiro[cyclohexane-1,3′-imidazo[1,5-a]pyridine]-1′,5′-dione] gave a negative logarithm of the IC50 (pIC50) of 7.88.

Molecule `Cc1cc(Nc2ncnc3c2CN(C(=O)OC(C)(C)C)C3)c(=O)n2c1C(=O)NC21CCCC1` [Example 103, tert-Butyl 4-[(8′-methyl-1′,5′-dioxo-1′,5′-dihydro-2′H-spiro[cyclopentane-1,3′-imidazo[1,5-a]pyridin]-6′-yl)amino]-5,7-dihydro-6H-pyrrolo[3,4-d]pyrimidine-6-carboxylate] gave a pIC50 of 8.33.

With `Cc1cc(Nc2ncnc3[nH]cnc23)c(=O)n2c1C(=O)NC21CCC(F)(F)CC1` [Example 106, 4,4-Difluoro-8′-methyl-6′-(9H-purin-6-ylamino)-2′H-spiro[cyclohexane-1,3′-imidazo[1,5-a]pyridine]-1′,5′-dione], the negative logarithm of the IC50 (pIC50) is 8.46.

In turn, `Cc1cc(Nc2ncnc3c2CNC3)c(=O)n2c1C(=O)NC21CCC(F)(F)CC1` [Example 125, 6′-(6,7-Dihydro-5H-pyrrolo[3,4-d]pyrimidin-4-ylamino)-4,4-difluoro-8′-methyl-2′H-spiro[cyclohexane-1,3′-imidazo[1,5-a]pyridine]-1′,5′-dione] had a pIC50 of 7.33.

`CCCNC(=O)Nc1nccc(Nc2cc(C)c3n(c2=O)C2(CCCCC2)NC3=O)n1` [Example 23, 1-{4-[(8′-Methyl-1′,5′-dioxo-1′,5′-dihydro-2′H-spiro[cyclohexane-1,3′-imidazo[1,5-a]pyridin]-6′-yl)amino]pyrimidin-2-yl}-3-propylurea] gave a negative-log IC50 (pIC50) of 6.47.

For the molecule `Cc1cc(Nc2ncnc3c2CN(S(=O)(=O)C(F)F)C3)c(=O)n2c1C(=O)NC21CCCCC1` [Example 71, 6′-({6-[(difluoromethyl)sulfonyl]-6,7-dihydro-5H-pyrrolo[3,4-d]pyrimidin-4-yl}amino)-8′-methyl-2′H-spiro[cyclohexane-1,3′-imidazo[1,5-a]pyridine]-1′,5′-dione], the pIC50 is 7.23.

`Cc1cc(Nc2ncnc3[nH]cnc23)c(=O)n2c1C(=O)NC21CCCCC1` [Example 24, 8′-methyl-6′-(9H-purin-6-ylamino)-2′H-spiro[cyclohexane-1,3′-imidazo[1,5-a]pyridine]-1′,5′-dione] had a negative-log IC50 (pIC50) of 8.82.

`COc1cccc2ncnc(Nc3cc(C)c4n(c3=O)C3(CCCCC3)NC4=O)c12` [Example 118, 6′-[(5-Methoxyquinazolin-4-yl)amino]-8′-methyl-2′H-spiro[cyclohexane-1,3′-imidazo[1,5-a]pyridine]-1′,5′-dione] showed a pIC50 of 7.18. This pIC50 lies 1.64 log units lower than the previous one.

`Cc1cc(Nc2ncnc(N)n2)c(=O)n2c1C(=O)NC21CCCC1` [Example 54, 6′-[(4-Amino-1,3,5-triazin-2-yl)amino]-8′-methyl-2′H-spiro[cyclopentane-1,3′-imidazo[1,5-a]pyridine]-1′,5′-dione] showed a negative logarithm of the IC50 (pIC50) of 8.24.

The molecule `Cc1cc(Nc2ncnc3ccc(F)cc23)c(=O)n2c1C(=O)NC21CSC1` [Example 176, 6-[(6-fluoroquinazolin-4-yl)amino]-8-methyl-2H-spiro[imidazo[1,5-a]pyridine-3,3′-thietane]-1,5-dione] gave a negative logarithm of the IC50 (pIC50) of 7.72.

In the case of `Cc1cc(Nc2ncnc3sc(C(=O)N(C)C)c(C)c23)c(=O)n2c1C(=O)NC21CCCCC1` [Example 16, N,N,5-trimethyl-4-[(8′-methyl-1′,5′-dioxo-1′,5′-dihydro-2′H-spiro[cyclohexane-1,3′-imidazo[1,5-a]pyridin]-6′-yl)amino]thieno[2,3-d]pyrimidine-6-carboxamide], the negative-log IC50 (pIC50) is 7.18.

These data come from US11311520B2, “Substituted dihydroimidazopyridinediones as MKNK1 and MKNK2 inhibitors” (Bayer Pharma Aktiengesellschaft, priority 2017, dated 2022).
